# Experimental data: patent US20020048572A1, “Treatment of hypertriglyceridemia and other conditions using LXR modulators” (priority 2000, published 2002)
# Key:
# Gal4-LXRα = Gal4-LXRα (Homo sapiens, UniProt Q13133); assay: HEK293 Gal4-nuclear receptor chimera luciferase reporter assay; type: cell-based; conditions: T0901317 1 μM, T0314407 5 μM, 20 h
# Source text: (§1) FIG. 7. (A) Dose responses to LXR ligands in an HEK293 transient transfection assay using a wild-type LXRα expression plasmid and a luciferase reporter gene containing two copies of an LXR response element. DMSO treatments were used to derive the basal level of activation. […] HEK293 cells were cotransfected with a luciferase reporter gene containing four copies of the Gal4 DNA-binding site and the various chimeric Gal4 (DNA-binding domain)-nuclear receptor (ligand-binding domain) proteins shown.
# (§2) HEK293 cells were cotransfected with a luciferase reporter gene and the various Gal4-nuclear receptor chimeric constructs shown and a β-galactosidase (β-gal) expression vector for normalization. Transfected cells were treated with the indicated compounds for 20 h before being harvested. Transfection data and luciferase results are normalized to β-gal and expressed as the fold-induction relative to DMSO controls.
# (§3) PXR, a nuclear receptor involved in the CYP3A-mediated metabolism of a diverse collection of xenobiotics, is known to be activated by a large number of synthetic compounds (Jones et al., Mol. Endocrinol. 14:27-39 (2000)).
# Gal4-LXRβ = Gal4-LXRβ (Homo sapiens, UniProt P55055); assay: as above; type: cell-based; conditions: T0901317 1 μM, T0314407 5 μM, 20 h
# Source text: as §1, §2, §3
# C57BL/6 mice = assay: Plasma lipid analysis in C57BL/6 mice; type: in vivo, mouse; conditions: oral treatment
# Source text: FIG. 8. Plasma lipid levels in animals treated with LXR agonist T0901317. The concentrations of (A) plasma triglycerides and (B) HDL-cholesterol for C57BL/6 mice (n=5, for each treatment group, M, males, F, females). (C) Separation of Golden Syrian hamster plasma by fast protein liquid chromatography (FPLC) in combination with analysis of the triglyceride content across PPLC fractions. Lipid data are reported as the mean ±SD for the number of determinations (animals) described in each experiment. Statistical significance (kybd) was defined as P<0.05 (ANOVA using SAS programming statistical test for controls and LXR agonist-treated animals). C57BL/6 mice (Charles River Laboratories) were between 6 and 10 wk old and weighed ˜20-30 g at the initiation of treatment. Golden Syrian Hamsters (Harlan Sprague-Dawley) were between 12 and 16 wk old (80-150 g). Animals were fed regular chow diets containing ˜4% fat and 0.02% cholesterol (PMI Pi-colab 5053 Chow). LXRα and β−/− mice were reared at the University of Texas Southwestern (UTSW) Medical Center at Dallas in accordance with the Institutional Animal Care and Research Advisory Committee at the UTSW Medical Center. Mice at UTSW were maintained on a 12 h light/12 h dark cycle and fed ad libitum a cereal-based mouse chow diet (No. 7001, Harlan Teklad). Plasma was prepared from euthanized mice using standard centrifugation techniques and analyzed for plasma total cholesterol, HDL cholesterol, and triglyceride concentrations using a Hitachi 704 Clinical Analyzer. FPLC of plasma lipoproteins was accomplished using 200 μL aliquots of pooled plasma (from three to five animals) and fractionated on Superose 6 columns (Pharmacia). Cholesterol, triglyceride, and phospholipid concentrations in the fractions were determined enzymatically with reagents from Boehringer, Sigma, and Wako, respectively. Hepatic lipids were extracted and analyzed for triglyceride essentially as described (Bucolo, G. and David, H., Clin. Chem. 19:476-482 (1973); Yokode et al., Science 250:1273-1275 (1990)).
# mouse liver mRNA = assay: Northern blot analysis of hepatic gene expression in treated mice; type: in vivo
# Description: FIG. 9. Northern blot analysis. Total RNA was isolated from the tissues indicated from mice (A,B,C) and hamsters (D). The numerical data shown with each figure represents the fold increase (+) or decrease (-) of expression relative to corresponding vehicle-treated controls. (E) HepG2 cells were incubated in culture media with or without cycloheximide (cyclohex). Total RNA extraction and purification for Northern blot analysis was accomplished using the TRI reagent (Molecular Research Center). […] Mouse gene expression was assessed by Northern blot analysis using random primed, ^32P-labeled, cDNA probes that were generated using the primers described in FIG. 11. Hybridization signals were quantified using a phosphoimager (Molecular Dynamics) and standardized against GAPDH controls. Mouse cDNA probes for the numerous genes analyzed were prepared using primers from mouse liver or intestinal cDNA as template. The SREBP-2 cDNA was a gift from J. D. Horton (University of Texas Southwestern Medical Center, Dallas); mouse and hamster CYP7[…]. W. Russell (University of Texas Southwestern Medical Center, Dallas). SCD-1 was a gift from J. Ntambi (University of Wisconsin, Madison), and apoD was kindly provided by […] (University of Quebec, Montreal).
# LXRα/β−/− mice = assay: Plasma and hepatic lipid analysis in LXRα/β−/− mice; type: in vivo, mouse
# Description: (§4) FIG. 10. […] Pooled plasma (50 μL from each of five mice per group) was fractionated and lipids analyzed as described. Shown are the concentrations for (A) FPLC triglyceride, (B) FPLC phospholipid, and (C) hepatic triglyceride. (D) Northern blot analysis of hepatic SREEP-I, SREBP-2, SCD-1, FAS, and ACC mRNA levels.
# C57BL/6 mice (Charles River Laboratories) were between 6 and 10 wk old and weighed ˜20-30 g at the initiation of treatment. Golden Syrian Hamsters (Harlan Sprague-Dawley) were between 12 and 16 wk old (80-150 g). […] LXRα and β−/− mice were reared at the University of Texas Southwestern (UTSW) Medical Center at Dallas in accordance with the Institutional Animal Care and Research Advisory Committee at the UTSW Medical Center.
# FPLC of plasma lipoproteins was accomplished using 200 μL aliquots of pooled plasma (from three to five animals) and fractionated on Superose 6 columns (Pharmacia). Cholesterol, triglyceride, and phospholipid concentrations in the fractions were determined enzymatically with reagents from Boehringer, Sigma, and Wako, respectively.
# [1] = system: LXRα/β−/− mice liver mRNA; assay: Northern blot analysis of hepatic mRNA in LXRα/β−/− mice; type: in vivo, mouse
# Description: as §4
# Chain of Gal4-LXRα (Q13133 209-447 limits assumed): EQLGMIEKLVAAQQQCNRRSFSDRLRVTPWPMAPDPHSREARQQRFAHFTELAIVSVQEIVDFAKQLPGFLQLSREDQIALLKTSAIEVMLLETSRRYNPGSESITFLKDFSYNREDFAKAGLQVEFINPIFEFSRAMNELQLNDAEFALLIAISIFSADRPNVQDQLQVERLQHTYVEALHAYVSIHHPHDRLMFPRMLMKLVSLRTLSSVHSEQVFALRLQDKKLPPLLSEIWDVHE
# Chain of Gal4-LXRα (P04386 1-147 partner limits assumed): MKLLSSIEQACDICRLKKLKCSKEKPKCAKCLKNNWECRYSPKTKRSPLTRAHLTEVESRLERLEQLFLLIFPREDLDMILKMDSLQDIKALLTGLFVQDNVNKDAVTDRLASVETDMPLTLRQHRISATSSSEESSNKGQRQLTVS
# Chain of Gal4-LXRβ (P55055 222-460 limits assumed): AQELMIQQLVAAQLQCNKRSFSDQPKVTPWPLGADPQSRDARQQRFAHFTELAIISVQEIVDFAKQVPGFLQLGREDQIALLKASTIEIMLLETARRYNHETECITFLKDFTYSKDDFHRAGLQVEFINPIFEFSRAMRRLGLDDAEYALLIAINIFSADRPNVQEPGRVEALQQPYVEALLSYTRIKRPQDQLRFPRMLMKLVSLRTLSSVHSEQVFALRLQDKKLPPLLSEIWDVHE
# Chain of Gal4-LXRβ (P04386 1-147 partner limits assumed): as the sequence (P04386 1-147 partner limits assumed) above
structure (smiles),measurement,setting,value
"O=S(=O)(c1ccccc1)N(CC(F)(F)F)c1ccc(C(O)(C(F)(F)F)C(F)(F)F)cc1 [T0901317, N-(2,2,2-trifluoro-ethyl)-N-[4-(2,2,2-trifluoro-1-hydroxy-1-trifluoromethyl-ethyl)-phenyl]-benzenesulfonamide]",transcriptional activation of Gal4-LXRα,Gal4-LXRα,highest activity
same,transactivation of chimeric Gal4-LXRβ,Gal4-LXRβ,transactivation was also noted
same,HDL-phospholipid,C57BL/6 mice,comparable increases
same,plasma total cholesterol (mainly HDL cholesterol),C57BL/6 mice,comparable increases
same,plasma triglycerides,C57BL/6 mice,significant elevations
same,plasma very low density lipoproteins (VLDL) triglycerides,C57BL/6 mice,Increases
same,"apoAI, apoAII, apoD, apoE, MTP and NaTCP gene expression",mouse liver mRNA,remained unaffected
same,"steady-state mRNA levels of CYP7A1, SCD-1, and SREBP-1",mouse liver mRNA,increased in a dose-dependent manner
same,transcript level of 3-hydroxy-3-methylglutaryl coenzyme A synthase (HMG CoA S),mouse liver mRNA,consistently reduced
same,transcript level of squalene synthase (SQS),mouse liver mRNA,consistently reduced
same,"SR-BI, apoCIII and DCAT transcript levels",mouse liver mRNA; data not shown,did not appear to vary in level
same,hepatic ACC gene activity (Northern blot),mouse liver mRNA; fold increase vs vehicle,twofold
same,hepatic FAS gene activity (Northern blot),mouse liver mRNA; fold increase vs vehicle,threefold
same,hepatic SCD-1 gene activity (Northern blot),mouse liver mRNA; fold increase vs vehicle,up to ninefold
same,total plasma triglyceride,LXRα/β−/− mice; LXRα/β−/− mice vs vehicle-treated LXRα/β−/−,scant increases
same,hepatic triglyceride levels,"LXRα/β−/− mice; LXRα/β−/− mice, 7 d",no significant elevation
same,plasma VLDL-triglyceride,"LXRα/β−/− mice; LXRα/β−/− mice, 7 d",relatively minute increase
same,"regulation of the SREBP-1, SCD-1, FAS, or ACC gene",[1],lack of regulation
